This is an account of results in publication PMC9721373 (Antiviral Research, 2022).

Structures can show the parent of a compound that is named as a salt. Where two headings read alike, the source gives them in different places.

In one series the test system is rVSVΔG-GFP/VSVG. The experiment in a line: microbe, parasite or virus in culture. The following applies: for activity at 10 µM: Vesicular stomatitis virus, HEK-293T, 16 h, read-out: rVSVΔG-GFP/VSVG GFP (%). Type of series: cell-based.
Series [1] has as its system rVSVΔG-GFP/SARS2-S. Nature of the series: microbe, parasite or virus in culture. Format: cell-based. The following applies: for rVSVΔG-GFP/SARS2-S GFP (%): 10 μM, HEK293T/ACE2, 16 hpi, GFP-positive cells, vehicle-treated = 100%; for activity at 10 µM: Severe acute respiratory syndrome coronavirus 2, HEK-293T, 16 h, read-out: rVSVΔG-GFP/SARS2-S GFP (%).
For series [2], the system named is rVSVΔG-GFP/SARS2-S.
Series [3] has as its target SARS2-S–NRP-1 binding (rS1 / rNRP-1) (Homo sapiens, UniProt O14786).
Another series has as its system VeroE6/TMPRSS2 cells. The following applies: 10 μM, 17.5 h.
For series [4], the system named is rVSVΔG-GFP/SARS2-S. The experiment in a line: microbe, parasite or virus in culture. The following applies: Severe acute respiratory syndrome coronavirus 2, HEK-293T.
The target in another series is purified ACE2. The following applies: read-out: dissociation constant (KD), ref Lu et al., 2021; cited from earlier work.
Where [5] appears, read: 10 μM, HEK293T/ACE2, 16 hpi, GFP-positive cells, vehicle-treated = 100%.

Chain of SARS2-S–NRP-1 binding (rS1 / rNRP-1) (O14786 22-856): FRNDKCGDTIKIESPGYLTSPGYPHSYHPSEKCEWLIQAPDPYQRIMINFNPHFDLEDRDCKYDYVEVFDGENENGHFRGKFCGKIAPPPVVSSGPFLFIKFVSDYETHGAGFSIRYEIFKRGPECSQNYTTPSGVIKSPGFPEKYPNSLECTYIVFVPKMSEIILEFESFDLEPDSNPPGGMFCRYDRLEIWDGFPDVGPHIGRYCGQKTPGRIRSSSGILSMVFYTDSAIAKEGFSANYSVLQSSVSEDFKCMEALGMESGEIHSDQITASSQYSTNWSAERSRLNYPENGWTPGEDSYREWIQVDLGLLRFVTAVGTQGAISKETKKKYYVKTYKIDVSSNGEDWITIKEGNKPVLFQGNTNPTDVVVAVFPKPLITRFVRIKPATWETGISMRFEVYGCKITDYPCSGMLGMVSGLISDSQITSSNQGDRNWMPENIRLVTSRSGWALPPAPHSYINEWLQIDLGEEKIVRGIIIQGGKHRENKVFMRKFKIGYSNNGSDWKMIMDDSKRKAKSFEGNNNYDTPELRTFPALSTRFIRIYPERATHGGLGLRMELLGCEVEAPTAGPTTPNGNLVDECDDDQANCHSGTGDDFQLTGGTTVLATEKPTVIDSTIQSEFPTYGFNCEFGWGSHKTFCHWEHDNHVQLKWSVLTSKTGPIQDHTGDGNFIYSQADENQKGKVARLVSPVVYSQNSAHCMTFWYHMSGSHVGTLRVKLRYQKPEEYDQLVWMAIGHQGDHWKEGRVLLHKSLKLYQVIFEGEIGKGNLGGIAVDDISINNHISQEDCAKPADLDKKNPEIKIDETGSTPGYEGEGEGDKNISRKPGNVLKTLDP

For the molecule `C=CC(=O)Nc1cc(Nc2nccc(-c3cn(C)c4ccccc34)n2)c(OC)cc1N(C)CCN(C)C.CS(=O)(=O)O` [AZD-9291 mesylate], in the series with HEK293T/ACE2 cells, the “rVSVΔG-GFP/SARS2-S Hoechst (%)” value stood at 98.67% and the “rVSVΔG-GFP/VSVG Hoechst (%)” value is 98.67%. In addition, in the series on rVSVΔG-GFP/VSVG (setting [5]), the “rVSVΔG-GFP/VSVG GFP (%)” value was 112.06%. In addition, the “rVSVΔG-GFP/SARS2-S GFP (%)” value in the series on rVSVΔG-GFP/SARS2-S [1] is recorded as 5.36%.
Turning to `CC(CN(C)C)CN1c2ccccc2Sc2ccccc21` (stereo not shown) [Alimemazine tartrate], in the series with rVSVΔG-GFP/SARS2-S [2], the “SI (CC50/EC50)” value came out at 12.2. Further, the “NRP1–S1 Binding (Normalized signal intensity)” value in series [3] was “inhibited”. In addition, in the series with VeroE6/TMPRSS2 cells, the VeroE6/TMPRSS2 cell viability entry is listed as “did not affect”. Besides, the concentration for a half-maximal effect (EC50) – broadly, the concentration at which the effect is half-maximal – in the series on rVSVΔG-GFP/SARS2-S [4] was determined as 2.42 µM.
In the case of `Clc1ccc2c(c1)C(N1CCNCC1)=Nc1ccccc1O2` [Amoxapine], the “rVSVΔG-GFP/SARS2-S Hoechst (%)” value in the series on HEK293T/ACE2 cells (human) was 102.06%. Moreover, in the series with HEK293T/ACE2 cells (human), the “rVSVΔG-GFP/VSVG Hoechst (%)” value is given as 99.31%. In addition, the figures for the activity at 10 µM in the series with rVSVΔG-GFP/VSVG and in the series on rVSVΔG-GFP/SARS2-S [1] were 116% and 23.7%, respectively.
Consider `CN1CC2c3ccccc3Oc3ccc(Cl)cc3C2C1` (stereo not shown) [Asenapine Maleate, Asenapine maleate], for which, in the series on HEK293T/ACE2 cells (human), the “rVSVΔG-GFP/SARS2-S Hoechst (%)” value came to 98.20% and the “rVSVΔG-GFP/VSVG Hoechst (%)” value worked out at 95.98%.
For `CC[C@H]1OC(=O)[C@H](C)[C@@H](O[C@H]2C[C@@](C)(OC)[C@@H](O)[C@H](C)O2)[C@H](C)[C@@H](O[C@@H]2O[C@H](C)C[C@H](N(C)C)[C@H]2O)[C@](C)(O)C[C@@H](C)CN(C)[C@H](C)[C@@H](O)[C@]1(C)O` [Azithromycin dihydrate], in that order: 100.22% and 101.30%.
Consider `Cc1c(-c2ccc(O)cc2)n(Cc2ccc(OCCN3CCCCCC3)cc2)c2ccc(O)cc12` [Bazedoxifene acetate], for which, in the series on HEK293T/ACE2 cells (human), the “rVSVΔG-GFP/SARS2-S Hoechst (%)” value is recorded as 88.96% and the “rVSVΔG-GFP/VSVG Hoechst (%)” value was 102.51%.
In the case of `CN(C)CCCN1c2ccccc2Sc2ccc(Cl)cc21` [Chlorpromazine hydrochloride], the dissociation constant Kd (commonly the concentration at which binding is half-saturated) at purified ACE2 was 13.8 µM. Further, the “rVSVΔG-GFP/VSVG Hoechst (%)” value in the series with HEK293T/ACE2 cells (human) is listed as 97.98%.
Take `C[C@@H](NCCCc1cccc(C(F)(F)F)c1)c1cccc2ccccc12` [Cinacalcet hydrochloride]: in the series on HEK293T/ACE2 cells (human), the “rVSVΔG-GFP/SARS2-S Hoechst (%)” value is recorded as 97.33% and the “rVSVΔG-GFP/VSVG Hoechst (%)” value was found to be 95.94%.
Take `CN1CCC[C@@H]1CCO[C@](C)(c1ccccc1)c1ccc(Cl)cc1` [Clemastine fumarate]: in the series on HEK293T/ACE2 cells (human), the “rVSVΔG-GFP/SARS2-S Hoechst (%)” value is 106.94% and the “rVSVΔG-GFP/VSVG Hoechst (%)” value worked out at 101.47%. The activity at 10 µM in the series on rVSVΔG-GFP/VSVG amounted to 105%. For the same molecule, in the series with rVSVΔG-GFP/SARS2-S [1], the activity at 10 µM is 12.5%.
As for `CCCCc1oc2ccc(NS(C)(=O)=O)cc2c1C(=O)c1ccc(OCCCN(CCCC)CCCC)cc1` [Dronedarone hydrochloride], in the series on HEK293T/ACE2 cells (human), the “rVSVΔG-GFP/SARS2-S Hoechst (%)” value turned out to be 99.72% and the “rVSVΔG-GFP/VSVG Hoechst (%)” value came out at 101.34%.
For `NC(N)=NCCC[C@H](NC(=O)c1sccc1NS(=O)(=O)c1cccc2nsnc12)C(=O)O` [EG00229], the “concentration required to inhibit SARS2-S–NRP-1 binding” value in series [3] was 1 mM.
Consider `OCCN1CCN(CCCN2c3ccccc3Sc3ccc(C(F)(F)F)cc32)CC1` [Fluphenazine hydrochloride, Fluphenazine dihydrochloride], for which, in the series on HEK293T/ACE2 cells (human), the “rVSVΔG-GFP/SARS2-S Hoechst (%)” value was 103.35% and the “rVSVΔG-GFP/VSVG Hoechst (%)” value came to 100.59%. Moreover, the activity at 10 µM with rVSVΔG-GFP/VSVG turned out to be 106%. Also, the activity at 10 µM in the series with rVSVΔG-GFP/SARS2-S [1] was found to be 19.3%.
With `Cc1ccc(NC(=O)c2ccc(CN3CCN(C)CC3)cc2)cc1Nc1nccc(-c2cccnc2)n1` [Imatinib Mesylate (STI571), Imatinib Mesylate], in the series on HEK293T/ACE2 cells (human), the “rVSVΔG-GFP/SARS2-S Hoechst (%)” value came out at 96.53% and the “rVSVΔG-GFP/VSVG Hoechst (%)” value worked out at 94.49%. The “rVSVΔG-GFP/VSVG GFP (%)” value with rVSVΔG-GFP/VSVG worked out at 103.15%. In the series with rVSVΔG-GFP/SARS2-S [1], the activity at 10 µM was 20.8%.
Consider `CNCCC=C1c2ccccc2CCc2ccccc21` [Nortriptyline hydrochloride], for which, in the series on HEK293T/ACE2 cells (human), the “rVSVΔG-GFP/SARS2-S Hoechst (%)” value is reported as 81.23% and the “rVSVΔG-GFP/VSVG Hoechst (%)” value was found to be 76.77%. Also, the activity at 10 µM in the series on rVSVΔG-GFP/VSVG was 91.7%. Also, the activity at 10 µM with rVSVΔG-GFP/SARS2-S [1] amounted to 17.4%.
As to `Fc1ccc([C@@H]2CCNC[C@H]2COc2ccc3c(c2)OCO3)cc1` [Paroxetine hydrochloride], in the series on HEK293T/ACE2 cells (human), the “rVSVΔG-GFP/SARS2-S Hoechst (%)” value is given as 102.73% and the “rVSVΔG-GFP/VSVG Hoechst (%)” value was determined as 98.03%.
Consider `OCCN1CCN(CCCN2c3ccccc3Sc3ccc(Cl)cc32)CC1` [Perphenazine], for which the “rVSVΔG-GFP/VSVG Hoechst (%)” value with HEK293T/ACE2 cells (human) came to 86.64%.
For `CN1CCN(CCCN2c3ccccc3Sc3ccc(Cl)cc32)CC1` [Prochlorperazine Maleate, Prochlorperazine dimaleate], the “rVSVΔG-GFP/SARS2-S Hoechst (%)” value with HEK293T/ACE2 cells (human) was 97.05%. Also, the “rVSVΔG-GFP/VSVG Hoechst (%)” value in the series with HEK293T/ACE2 cells (human) came out at 93.26%. The activity at 10 µM in the series on rVSVΔG-GFP/VSVG was 131%; in the series on rVSVΔG-GFP/SARS2-S [1] it was 16.6%.
As to `O=C(c1ccc(OCCN2CCCCC2)cc1)c1c(-c2ccc(O)cc2)sc2cc(O)ccc12` [Raloxifene hydrochloride], in the series with HEK293T/ACE2 cells (human), the “rVSVΔG-GFP/SARS2-S Hoechst (%)” value is 101.70% and the “rVSVΔG-GFP/VSVG Hoechst (%)” value is recorded as 103.53%.
On to `CN[C@H]1CC[C@@H](c2ccc(Cl)c(Cl)c2)c2ccccc21` [Sertraline hydrochloride], for which, in the series on HEK293T/ACE2 cells (human), the “rVSVΔG-GFP/SARS2-S Hoechst (%)” value amounted to 101.27% and the “rVSVΔG-GFP/VSVG Hoechst (%)” value was 97.33%. For the same molecule, the activity at 10 µM with rVSVΔG-GFP/VSVG is 105%. In the series on rVSVΔG-GFP/SARS2-S [1], the activity at 10 µM was determined as 15.8%.
For `CC/C(=C(\c1ccccc1)c1ccc(OCCN(C)C)cc1)c1ccccc1` [Tamoxifen citrate], in that order: 99.67%, 97.14%, 106% and 16.3%.
`CSc1ccc2c(c1)N(CCC1CCCCN1C)c1ccccc1S2` (stereo not shown) [Thioridazine hydrochloride]: in the series on HEK293T/ACE2 cells (human), the “rVSVΔG-GFP/SARS2-S Hoechst (%)” value is listed as 98.59% and the “rVSVΔG-GFP/VSVG Hoechst (%)” value amounted to 95.38%. Moreover, in the series with rVSVΔG-GFP/VSVG, the activity at 10 µM was determined as 119%. Besides, in the series on rVSVΔG-GFP/SARS2-S [1], the activity at 10 µM stood at 15.8%.
In the case of `CN(C)CCOc1ccc(/C(=C(/CCCl)c2ccccc2)c2ccccc2)cc1` [Toremifene citrate], in the series on HEK293T/ACE2 cells (human), the “rVSVΔG-GFP/SARS2-S Hoechst (%)” value is recorded as 99.98% and the “rVSVΔG-GFP/VSVG Hoechst (%)” value is recorded as 98.74%. Also, the “rVSVΔG-GFP/VSVG GFP (%)” value in the series with rVSVΔG-GFP/VSVG (setting [5]) came out at 109.35%. Besides, the “rVSVΔG-GFP/SARS2-S GFP (%)” value with rVSVΔG-GFP/SARS2-S [1] is recorded as 8.32%.
Take `CN(C)CCOc1ccc(/C(=C(/CCCl)c2ccccc2)c2ccccc2)cc1` [Toremifene]: in the series on HEK293T/ACE2 cells (human), the “rVSVΔG-GFP/SARS2-S Hoechst (%)” value came out at 101.27% and the “rVSVΔG-GFP/VSVG Hoechst (%)” value was determined as 90.44%. Further, the “rVSVΔG-GFP/VSVG GFP (%)” value in the series with rVSVΔG-GFP/VSVG (setting [5]) is 142.24%. Also, the “rVSVΔG-GFP/SARS2-S GFP (%)” value in the series on rVSVΔG-GFP/SARS2-S [1] was determined as 21.77%.
As for `CN1CCN(CCCN2c3ccccc3Sc3ccc(C(F)(F)F)cc32)CC1` [Trifluoperazine dihydrochloride], the dissociation constant Kd at purified ACE2 was 33.3 µM. Also, in the series with HEK293T/ACE2 cells (human), the “rVSVΔG-GFP/SARS2-S Hoechst (%)” value is 107.56% and the “rVSVΔG-GFP/VSVG Hoechst (%)” value is on record as 97.29%.
Take `CC(CN(C)C)CN1c2ccccc2CCc2ccccc21` (stereo not shown) [Trimipramine maleate]: the “rVSVΔG-GFP/VSVG Hoechst (%)” value in the series with HEK293T/ACE2 cells (human) is recorded as 99.90%.
As to `COc1cc2c(Nc3ccc(Br)cc3F)ncnc2cc1OCC1CCN(C)CC1` [Vandetanib (ZD6474), Vandetanib], in the series with HEK293T/ACE2 cells (human), the “rVSVΔG-GFP/SARS2-S Hoechst (%)” value was 104.11% and the “rVSVΔG-GFP/VSVG Hoechst (%)” value is listed as 99.04%.
